Assay results: patent US20260055108A1, “TRIAZINE COMPOUNDS AND USES THEREOF” (HUTCHMED LIMITED, priority 2022, published 2026)

Assays:
[1] = target: Recombinant human Menin protein (2-610) / MLL polypeptide binding (Homo sapiens (Human), UniProt O00255); assay: Menin and MLL protein binding at a molecular level (fluorescence polarization method); settings: inhibition of Menin / MLL polypeptide binding
Description: Example 3: Determination of the Activity of the Compounds of the Present Invention on Menin and MLL Protein Binding at a Molecular Level (Fluorescence Polarization Method)
1. Reagents, Materials and Instruments:
• Recombinant human Menin protein (2-610): ChemPartner, CP2021020801; • MLL polypeptide (6-FAM-Ahx-SG-40): GL Biochem, 865700; • Trizma® hydrochloride buffer solution (Tris): Sigma, T2194-1 L; • NaCl: Invitrogen, AM9760G; • TCEP: Sigma, 646547; • DMSO: Sigma, D4540; • 384-well plate: Corning, 4514; • Envision: PerkinElmer.
2. Preparation of Reaction Solutions
• 1) Buffer solution: 20 mL of Tris and 4 mL of NaCl were added respectively to 376 mL of ddH2O, with pH adjusted to 7.5, and TCEP was added before testing with a dilution ratio of 1:500. • 2) 5× test compounds: the test compound was subjected to gradient dilution with the buffer solution to 5-fold the reaction concentration, so that the final concentrations of the compound were 1.000, 0.333, 0.111, 0.037, 0.012, 0.004, 0.001 and 0.0005 μM, respectively. • 3) 2.5× Menin protein reaction solution: the Menin protein was diluted to 5 nM with the buffer solution. • 4) 2.5×MLL polypeptide reaction solution: the MLL polypeptide was diluted to 5 nM with the buffer solution.
1) Binding Reaction (20 μL System)
4 μL of 5× test compound was added to each reaction well of the 384-well plate, and the corresponding volume of 10% DMSO was added to the control wells. Except the control wells, 8 μL of Menin protein reaction solution was added to each well. The reaction solution was incubated at room temperature for 30 minutes, and then 8 μL of MLL polypeptide reaction solution was added to each well. The final concentrations of DMSO in the test compound wells and control wells were all 2%. The 384-well plate was sealed and incubated at room temperature for 30 minutes in the dark.
Three control groups were set up: • a blank control group only containing a buffer solution; • a negative control group only containing MLL polypeptide reaction solution; and • a positive control group containing Menin protein reaction solution and MLL polypeptide reaction solution.
The vertical polarization S value and the horizontal polarization P value (excitation wavelength was 480 nm, and emission wavelength was 535 nm) were measured with Envision.
Corrected S is the S value of the negative control group—the S value of the blank control group
Corrected P is the P value of the negative control group—the P value of the blank control group
(§1) • calculated by using software XL-Fit™ (version 5.3) supplied by ID Business Solutions (Guildford, UK), which is an additional software to Microsoft Excel.

[2] = system: MV-4-11 cells (human acute myelogenous leukemia cell line carrying MLL-AF4 mutation); assay: Cell proliferation assay, MV-4-11 (CellTiter-Glo); type: cell-based; settings: Homo sapiens, MV4-11, 72 h, MV-4-11 cells, 3 days treatment, CellTiter-Glo; read-out: GI50
Procedure: Example 4 Cell Proliferation Assay
MV-4-11 (ATCC, CRL-9591), a human acute myelogenous leukemia cell line carrying MLL-AF4 mutation. Cells were cultured in an IMDM medium containing 10% heat-inactivated fetal bovine serum (HIFBS) and supplemented with 50 μM β-mercaptoethanol.
2. Reagents, Materials and Instruments:
• IMDM culture solution: GIBCO, 12440-053; • HIFBS: GIBCO, 10100-147; • β-mercaptoethanol: Sigma, M3148; • CellTiter-Glo® 2.0 assay kit (CTG): Promega, G9243; • DMSO: Sigma, D4540; • 96-well cell culture plate: Corning, 3903; • Envision: PerkinElmer.
MV-4-11 cells were resuspended in a medium, added to a 96-well plate at a density of 3000 cells/well with a volume of 100 μL/well, and cultured in a cell incubator at 5% CO2 and 37° C. for 4 hours. The test compound subjected to gradient dilution with the medium was added to a cell culture plate, and the final concentrations of the compound were 1.100, 0.367, 0.122, 0.041, 0.014, 0.005, 0.002 and 0.001 μM, respectively. The corresponding volume of DMSO diluent was added to a blank control well, and the final concentrations of DMSO in the experimental group and control group were both 0.1%. The cell plate was placed in a cell incubator at 5% CO2 and 37° C. and cultured for 3 days.
On day 0 and day 3 of the treatment, 50 μL/well CTG reagent was added to the cell plate and shaken at room temperature in the dark for 10 min, and then the chemiluminescence value of each well was measured with Envision.
[formula] • wherein: • luminescence valuetest sample: the chemiluminescence value of a cell well treated with the test compound for 3 days. • luminescence valueday 0: the chemiluminescence value of a cell well at day 0. • luminescence valuecell well: the chemiluminescence value of a cell well not treated with the compound for 3 days.
as §1

Sequence of Recombinant human Menin protein (2-610) / MLL polypeptide binding (O00255 2-610): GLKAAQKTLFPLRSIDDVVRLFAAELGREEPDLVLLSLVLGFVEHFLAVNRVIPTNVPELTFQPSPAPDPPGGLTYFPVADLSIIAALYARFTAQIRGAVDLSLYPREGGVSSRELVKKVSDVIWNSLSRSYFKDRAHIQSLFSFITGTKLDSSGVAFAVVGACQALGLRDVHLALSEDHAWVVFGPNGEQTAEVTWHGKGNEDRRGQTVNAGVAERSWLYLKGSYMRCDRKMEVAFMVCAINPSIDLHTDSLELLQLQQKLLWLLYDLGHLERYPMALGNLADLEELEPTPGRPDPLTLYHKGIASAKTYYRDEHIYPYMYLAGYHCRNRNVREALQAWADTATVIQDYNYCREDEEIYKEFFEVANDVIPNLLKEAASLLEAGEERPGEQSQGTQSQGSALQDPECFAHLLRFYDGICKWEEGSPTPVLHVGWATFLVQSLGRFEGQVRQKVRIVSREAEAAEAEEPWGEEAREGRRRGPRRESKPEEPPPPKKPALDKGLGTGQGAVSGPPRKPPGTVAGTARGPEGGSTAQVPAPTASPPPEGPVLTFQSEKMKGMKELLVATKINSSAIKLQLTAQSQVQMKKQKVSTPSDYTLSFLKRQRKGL

| IC50 [1] [nM] | GI50 [2] [nM] | Compound |
| --- | --- | --- |
| 6.5 | 9 | CCN(C(=O)c1cc(F)ccc1Oc1nncnc1N1CC2(CCN(CC3CCN(c4ccc(C#N)cc4)CC3)CC2)C1)C(C)C [Compound 51] |
| > 1000 | 2950 | CCN(C(=O)c1cc(F)ccc1Oc1nncnc1N1CCC(C2(N(Cc3ccc4[nH]c(C#N)cc4c3C)C(C)C)CC2)C1)C(C)C (centres unmarked) [Compound 143] |
| 87.7 | 54 | CCN(C(=O)c1cc(F)ccc1Oc1nnc(C)nc1N1CC2(CCN(Cc3ccc4c(cc(C#N)n4CCO)c3C)CC2)C1)C(C)C [Compound 160] |
| 2.7 | 9 | CCN(C(=O)c1cc(F)ccc1Oc1nncnc1N1CC2(CCN(CC3CCN(c4cccc(CO)n4)CC3)CC2)C1)C(C)C [Compound 132, N-ethyl-5-fluoro-2-((5-(7-((1-(6-(hydroxymethyl)pyridin-2-yl)piperidin-4-yl)methyl)-2,7-diazaspiro[3.5]nonan-2-yl)-1,2,4-triazin-6-yl)oxy)-N-isopropylbenzamide] |
| 75 | 113 | CCN(C(=O)c1cc(F)ccc1Oc1nncnc1N1CC2(CCN(CC3CCN(C(=O)c4cnn(C)c4)CC3)CC2)C1)C(C)C [Compound 16] |
| 2.4 | 31 | CCN(C(=O)c1cc(F)ccc1Oc1nncnc1N1CC2(CCN(CC3CCN(C(=O)C4CCC4)CC3)CC2)C1)C(C)C [Compound 3] |
| 14.7 | 26 | COc1cc(N2CCC(CN3CCC4(CC3)CN(c3ncnnc3Oc3ccc(F)cc3C(=O)N3CCCC3)C4)CC2)nnc1OC [Compound 99] |
| > 200 | 76 | CCN(C(=O)c1cc(F)ccc1Oc1nncnc1N1CC2(CCN(C(=O)C3CCN(c4ccccn4)CC3)CC2)C1)C(C)C [Compound 172, N-ethyl-5-fluoro-N-isopropyl-2-((5-(7-(1-(pyridin-2-yl)piperidine-4-carbonyl)-2,7-diazaspiro[3.5]nonan-2-yl)-1,2,4-triazin-6-yl)oxy)benzamide] |
| 175 | 255 | N#Cc1ccc(N2CCC(CN3CCC4(CC3)CN(c3ncnnc3Oc3ccc(F)cc3C3=CCOCC3)C4)CC2)nc1 [Compound 117] |
| 0.9 | 2 | CCN(C(=O)c1cc(F)ccc1Oc1nncnc1N1CC2(CCN(CC3CCN(c4ccc(C)nn4)CC3)CC2)C1)C(C)C [Compound 84] |
| 5.1 | 70 | CCN(C(=O)c1cc(F)ccc1Oc1nncnc1N1CCC(C2(NCc3ccc4[nH]c(C#N)cc4c3C)CC2)C1)C(C)C (centres unmarked) [Compound 128] |
| 53.5 | 70 | CCN(C(=O)c1cc(F)ccc1Oc1nncnc1N1CC2(CCN(CC3CCN(c4ccc(C#N)cn4)CC3)CC2)C1)C1CC1 [Compound 116] |
| 6.1 | 26 | [2H]C(c1ccc2oc(C#N)cc2c1)N1CCC2(CC1)CN(c1ncnnc1Oc1ccc(F)cc1C(=O)N(CC)C(C)C)C2 (centres unmarked) [Compound 176] |
| 98.7 | 58 | C=CC(=O)N1CCC(CN2CCC3(CC2)CN(c2ncnnc2Oc2ccc(F)cc2C(=O)N(CC)C(C)C)C3)CC1 [Compound 20, 2-((5-(7-((1-acryloylpiperidin-4-yl)methyl)-2,7-diazaspiro[3.5]nonan-2-yl)-1,2,4-triazin-6-yl)oxy)-N-ethyl-5-fluoro-N-isopropylbenzamide] |
| 28.4 | 45 | CCN(C(=O)c1cc(F)ccc1Oc1nncnc1N1CC2(CCN(CC3CCN(c4ccc5ncnn5c4)CC3)CC2)C1)C(C)C [Compound 56] |
| 6.4 | 13 | CCN(C(=O)c1cc(F)ccc1Oc1nncnc1N1CC2(CCN(CC3CCN(c4ccc5nccn5n4)CC3)CC2)C1)C(C)C [Compound 43] |
| 324 | 193 | CCN(C(=O)c1cc(F)ccc1Oc1nncnc1N1CC2(CCN(Cc3ccc4[nH]ccc4c3)CC2)C1)C(C)C [Compound 62] |

| IC50 [1] [nM] | GI50 [2] [nM] | Compound |
| --- | --- | --- |
| 10.9 | 22 | COc1cc(N2CCC(CN3CCC4(CC3)CN(c3ncnnc3Oc3ccc(F)cc3-c3ccnn3C)C4)CC2)nnc1OC [Compound 92] |
| > 1000 | > 3300 | COc1cc(N2CCC(CN3CCC4(CC3)CN(c3ncnnc3Oc3ccc(F)c5c3cnn5C(C)C)C4)CC2)nnc1OC [Compound 104] |
| 2.6 | 7 | CCN(C(=O)c1cc(F)ccc1Oc1nncnc1N1CC2(CCN(CC3CCN(c4ccn5nccc5n4)CC3)CC2)C1)C(C)C [Compound 82] |
| 2.5 | 15 | CCN(C(=O)c1cc(F)ccc1Oc1nncnc1N1CC2(CCN(CC3CCN(C(=O)NC(C)C)CC3)CC2)C1)C(C)C [Compound 29] |
| 4 | 2 | C=CC(=O)Nc1cccc(N2CCC(CN3CCC4(CC3)CN(c3ncnnc3Oc3ccc(F)cc3C(=O)N(CC)C(C)C)C4)CC2)c1 [Compound 183] |
| 10.7 | 35 | CCN(C(=O)c1cc(F)ccc1Oc1nncnc1N1CC2(CCN(CC3CCN(C(=O)NCCOC)CC3)CC2)C1)C(C)C [Compound 35] |
| 43.7 | 48 | CCN(C(=O)c1cc(F)ccc1Oc1nnc(NC)nc1N1CC2(CCN(Cc3ccc4c(cc(C#N)n4CCO)c3C)CC2)C1)C(C)C [Compound 156] |
| > 200 | 505 | CCN(C(=O)c1cc(F)ccc1Oc1nncnc1N1CC2(CCN(Cc3ccc(-c4ccccn4)cc3)CC2)C1)C(C)C [Compound 124] |
| 5.2 | 8 | CCN(C(=O)c1cc(F)ccc1Oc1nncnc1N1CC2(CCN(CC3CCN(c4cnc(OC)c(OC)c4)CC3)CC2)C1)C(C)C [Compound 111] |
| 2.8 | 4 | CCN(C(=O)c1cc(F)ccc1Oc1nncnc1N1CC2(CCN(CC3CCN(c4cc(OC)cnn4)CC3)CC2)C1)C(C)C [Compound 89] |
| 3.3 | 9 | CCN(C(=S)c1cc(F)ccc1Oc1nncnc1N1CC2(CCN(CC3CCN(c4cc(OC)c(OC)nn4)CC3)CC2)C1)C(C)C [Compound 107] |
| 0.6 | 2 | CCN(C(=O)c1cc(F)ccc1Oc1nncnc1N1CC2(CCN(CC3CCN(c4cc(OC)c(OC)nn4)CC3)C2)C1)C(C)C [Compound 93] |
| 28.8 | 20 | CCN(C(=O)c1cc(F)ccc1Oc1nncnc1N1CC2(CCN(CC3CCN(c4ncccn4)CC3)CC2)C1)C(C)C [Compound 78] |
| 4.7 | 15 | CCN(C(=O)c1cc(F)ccc1Oc1nncnc1N1CC2(CCN(CC3CCN(c4cc(C#N)cnn4)CC3)CC2)C1)C(C)C [Compound 48] |
| 73.8 | 60 | C[C@H]1COCCN1C(=O)c1cc(F)ccc1Oc1nncnc1N1CC2(CCN(CC3CCN(c4ccccn4)CC3)CC2)C1 [Compound 77] |
| 4.7 | 6 | CCN(C(=O)c1cc(F)ccc1Oc1nncnc1N1CC2(CCN(CC3CCN(c4ccc(C#N)nc4)CC3)CC2)C1)C(C)C [Compound 115] |
| 0.9 | 3 | CCN(C(=O)c1cc(F)ccc1Oc1nncnc1N1CC2(CCN(CC3CCN(c4cc(C(N)=O)ccn4)CC3)CC2)C1)C(C)C [Compound 52] |
